Drawing on patent US20080188503A1, “New Compounds II” (AstraZenaca AB, priority 2006, published 2008), this text covers Ki for eleven molecules.

The target in the test is T1, recombinant human GSK3β (Homo sapiens, UniProt P49841).
T1 construct: purchased Dundee University, UK
T1 sequence (P49841 whole entry): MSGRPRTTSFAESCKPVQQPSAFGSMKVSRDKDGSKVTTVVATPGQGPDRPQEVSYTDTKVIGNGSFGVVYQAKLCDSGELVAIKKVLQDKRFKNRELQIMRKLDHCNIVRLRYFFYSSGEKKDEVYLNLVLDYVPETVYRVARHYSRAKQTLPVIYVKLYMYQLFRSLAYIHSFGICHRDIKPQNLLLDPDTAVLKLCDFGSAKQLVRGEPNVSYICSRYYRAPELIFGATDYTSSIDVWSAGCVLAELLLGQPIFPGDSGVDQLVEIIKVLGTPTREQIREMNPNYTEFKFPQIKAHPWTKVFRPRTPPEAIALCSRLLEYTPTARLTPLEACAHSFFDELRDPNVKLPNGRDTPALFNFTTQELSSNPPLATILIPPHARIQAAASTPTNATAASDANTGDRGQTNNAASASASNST
The test is described as follows: GSK3β Scintillation Proximity Assay (ATP competition). It is filed as biochemical. To be noted: recombinant human GSK3β SPA; 1 μM ATP, 1 μM biotinylated peptide substrate; Ki calculated with Km of ATP 20 μM. The protocol:
Determination of ATP Competition in Scintillation Proximity GSK3β Assay.
GSK3β Scintillation Proximity Assay.
The competition experiments were carried out in duplicate with 10 different concentrations of the inhibitors in clear-bottom microtiter plates (Wallac, Finland). A biotinylated peptide substrate, Biotin-Ala-Ala-Glu-Glu-Leu-Asp-Ser-Arg-Ala-Gly-Ser(PO3H2)-Pro-Gln-Leu (AstraZeneca, Lund), was added at a final concentration of 1 μM in an assay buffer containing 1 mU recombinant human GSK3β (Dundee University, UK), 12 mM morpholinepropanesulfonic acid (MOPS), pH 7.0, 0.3 mM EDTA, 0.01% β-mercaptoethanol, 0.004% Brij 35 (a […] detergent), 0.5% glycerol and 0.5 μg BSA/25 μl. The reaction was initiated by the addition of 0.04 μCi [γ-^33P]ATP (Amersham, UK) and unlabelled ATP at a final concentration of 1 μM and assay volume of 25 μl. After incubation for 20 minutes at room temperature, each reaction was terminated by the addition of 25 μl stop solution containing 5 mM EDTA, 50 μM ATP, 0.1% Triton X-100 and 0.25 mg streptavidin coated Scintillation Proximity Assay (SPA) beads (Amersham, UK). After 6 hours the radioactivity was determined in a liquid scintillation counter (1450 MicroBeta Trilux, Wallac). The inhibition curves were analysed by non-linear regression using GraphPad Prism, USA. The Km value of ATP for GSK3β, used to calculate the inhibition constants (Ki) of the various compounds, was 20 μM.
As to `Cc1ncc(-c2nc(Nc3ccc(CN4CCOCC4)nc3)ncc2F)n1C1CCOCC1` [Example 10, 5-Fluoro-4-[2-methyl-1-(tetrahydro-2H-pyran-4-yl)-1H-imidazol-5-yl]-N-[6-(morpholin-4-ylmethyl)pyridin-3-yl]pyrimidin-2-amine], the Ki was 64 nM.

In the case of `Cc1ncc(-c2nc(NC3CCCCC3)ncc2F)n1C1CCOCC1` [Example 36, N-Cyclohexyl-5-fluoro-4-[2-methyl-1-(tetrahydro-2H-pyran-4-yl)-1H-imidazol-5-yl]pyrimidin-2-amine], the Ki is 16 nM.

Consider `Cc1ncc(-c2nc(Nc3ccc(CN4CCC(N5CCCC5)CC4)nc3)ncc2F)n1C1CCOCC1` [Example 25, 5-Fluoro-4-[2-methyl-1-(tetrahydro-2H-pyran-4-yl)-1H-imidazol-5-yl]-N-{6-[(4 pyrrolidin-1-ylpiperidin-1-yl)methyl]pyridin-3-yl}pyrimidin-2-amine], for which the inhibition constant Ki was 210 nM.

As for `Cc1ncc(-c2nc(Nc3ccc(CN(CCC#N)CC4CCCO4)nc3)ncc2F)n1C1CCOCC1` (centres unmarked) [Example 26, 3-[{[5-({5-Fluoro-4-[2-methyl-1-(tetrahydro-2H-pyran-4-yl)-1H-imidazol-5-yl]pyrimidin-2-yl}amino)pyridin-2-yl]methyl}(tetrahydrofuran-2-ylmethyl)amino]propanenitrile], the Ki was 75 nM. Consider `COC[C@@H]1CCCN1Cc1ccc(Nc2ncc(F)c(-c3cnc(C)n3C3CCOCC3)n2)cn1` [Example 15, 5-Fluoro-N-(6-{[(2S)-2-(methoxymethyl)pyrrolidin-1-yl]methyl}pyridin-3-yl)-4-[2-methyl-1-(tetrahydro-2H-pyran-4-yl)-1H-imidazol-5-yl]pyrimidin-2-amine], for which the Ki was 1300 nM. To `Cc1ncc(-c2nc(Nc3ccc(CN4CCN(c5ncccn5)CC4)nc3)ncc2F)n1C1CCOCC1` [Example 14, 5-Fluoro-4-[2-methyl-1-(tetrahydro-2H-pyran-4-yl)-1H-imidazol-5-yl]-N-{6-[(4 pyrimidin-2-ylpiperazin-1-yl)methyl]pyridin-3-yl}pyrimidin-2-amine] belongs 10 nM; to `Cc1ncc(-c2nc(NC3CCN(C(=O)c4ccccc4)CC3)ncc2F)n1C1CCOCC1` [Example 38, N-(1-Benzoylpiperidin-4-yl)-5-fluoro-4-[2-methyl-1-(tetrahydro-2H-pyran-4-yl)-1H-imidazol-5-yl]pyrimidin-2-amine], 57 nM; to `COC1CCN(Cc2ccc(Nc3ncc(F)c(-c4cnc(C)n4C4CCOCC4)n3)cn2)CC1` [Example 22, 5-Fluoro-N-{6-[(4-methoxypiperidin-1-yl)methyl]pyridin-3-yl}-4-[2-methyl-1-(tetrahydro-2H-pyran-4-yl)-1H-imidazol-5-yl]pyrimidin-2-amine], 150 nM. Take `Cc1ncc(-c2nc(Nc3ccc(CNCC#N)nc3)ncc2F)n1C1CCOCC1` [Example 29, ({[5-({5-Fluoro-4-[2-methyl-1-(tetrahydro-2H-pyran-4-yl)-1H-imidazol-5-yl]pyrimidin-2-yl}amino)pyridin-2-yl]methyl}amino)acetonitrile]: the Ki was 48 nM. Consider `Cc1ncc(-c2nc(NC3CCN(C(=O)OCc4ccccc4)CC3)ncc2F)n1C1CCOCC1` [Example 40, Benzyl 4-({5-fluoro-4-[2-methyl-1-(tetrahydro-2H-pyran-4-yl)-1H-imidazol-5-yl]pyrimidin-2-yl}amino)piperidine-1-carboxylate], for which the Ki was 31 nM. Regarding `Cc1ncc(-c2nc(Nc3ccc(CNCc4ccc(Cl)nc4)nc3)ncc2F)n1C1CCOCC1` [Example 20, N-[6-({[(6-Chloropyridin-3-yl)methyl]amino}methyl)pyridin-3-yl]-5-fluoro-4-[2-methyl-1-(tetrahydro-2H-pyran-4-yl)-1H-imidazol-5-yl]pyrimidin-2-amine], the Ki was 37 nM.
